The test has as its system compound 48/80-induced lethality. The test can be described thus: Protection of rats from compound 48/80-induced lethality. It counts as in vivo. Conditions: Rattus norvegicus; male Wistar rats; test compound subcutaneously or orally (route per compound not stated); one hour later compound 48/80 0.5 mg/kg intravenously; dose protecting 50% of animals, survival after 4 hours; read-out: compound 48/80 lethality test in rats-ED₅₀ in mg/kg body weight. The text has this:
Protection of rats from compound 48/80-induced lethality.
Compound 48/80, a mixture of oligomers obtained by condensation of 4-methoxy-N-methylbenzeneethanamine and formaldehyde has been described as a potent histamine releasing agent (Int. Arch. Allergy, 13, 336 (1958)). The protection from compound 48/80-induced lethal circulatory collapse appears to be simple way of evaluating quantitatively the antihistaminic activity of test compounds. Male rats of an inbred Wistar strain, weighing 240-260 g were used in the experiment. After overnight starvation the rats were transferred to conditioned laboratories (temp. = 21 ± 1°C, relative humidity = 65 ± 5%). The rats were treated subcutaneously or orally with a test compound or with the solvent (NaCl solution, 0.9%). One hour after treatment there was injected intravenously compound 48/80, freshly dissolved in water, at a dose of 0.5 mg/kg (0.2 ml/100 g of body weight). In control experiments, wherein 250 solvent-treated animals were injected with the standard dose of compound 48/80, not more than 2.8% of the animals survived after 4 hours. Survival after 4 hours is therefore considered to be a safe criterion of a protective effect of drug administration. Said ED₅₀-values are the values in mg/kg body weight at which the tested compounds protect 50% of the tested animals against […] lethality.
Consider `c1coc(Cn2c(NC3CCCNCC3)nc3cccnc32)c1` (centres unmarked) [compound 49, 3-(2-furanylmethyl)-N-(hexahydro-1H-azepin-4-yl)-3H-imidazo[4,5-b]pyridin2-amine], for which the ED50 is 0.04 mg/kg. Take `COc1ccc(CCN2CCC(Nc3nc4cccnc4n3Cc3ccccn3)C2)cc1` (centres unmarked) [compound 61]: the ED50 came out at 0.08 mg/kg. In the case of `COc1ccc(CCN2CCCC(Nc3nc4cccnc4n3Cc3ccc(C)o3)CC2)cc1` (centres unmarked) [compound 68] it was 0.04 mg/kg.

Turning to `Cc1ccc(Cn2c(NC3CCN(CCc4c(C)nc5ccccn5c4=O)C3)nc3cccnc32)o1` (centres unmarked) [compound 94], the ED50 was found to be 0.04 mg/kg. In the case of `Cc1nc2ccccn2c(=O)c1CCN1CCC(Nc2nc3cccnc3n2Cc2cscn2)C1` (centres unmarked) [compound 95] it was 0.04 mg/kg; in that of `Cc1ccc(Cn2c(NC3CCN(CCc4c(C)nc5ccccn5c4=O)C3)nc3ccccc32)o1` (centres unmarked) [compound 96], 0.04 mg/kg. As to `Cc1nc2n(c(=O)c1CCN1CCC(Nc3nc4cccnc4n3Cc3ccccn3)C1)CCCC2` (centres unmarked) [compound 99], the ED50 is 0.04 mg/kg. In the case of `Cc1ccc(Cn2c(NC3CCN(CCc4c(C)nc5n(c4=O)CCCC5)C3)nc3ccccc32)o1` (centres unmarked) [compound 102] it was 0.04 mg/kg. The value for `O=c1oc2ccccc2cc1CCN1CCCC(Nc2nc3cccnc3n2Cc2ccco2)CC1` (centres unmarked) [compound 109, 3-[2-[4-[[3-(2-furanylmethyl)-3H-imidazo[4,5-b]pyridin-2-yl]-amino]hexahydro-1H-azepin-1-yl]ethyl]-2H-1-benzopyran-2-one] was 0.04 mg/kg; that for `O=c1[nH]c2ccccc2n1CCN1CCC(Nc2nc3ccccc3n2Cc2ccc(F)cc2)C1` (centres unmarked) [compound 125, 1-[2-[3-[[1-[(4-fluorophenyl)methyl]-1H-benzimidazol-2-yl]amino]-1-pyrrolidinyl]ethyl]-1,3-dihydro-2H-benzimidazol-2-one] was 0.08 mg/kg. The value for `Fc1ccc(Cn2c(NC3CCN(CCNc4ncccn4)C3)nc3ccccc32)cc1` (centres unmarked) [compound 166, 1-[(4-fluorophenyl)methyl]-N-[1-[-(2-pyrimidinylamino)ethyl]-3-pyrrolidinyl]-1H-benzimidazol-2-amine] was 0.08 mg/kg; that for `Fc1ccc(Cn2c(NC3CCN(CCNc4nccs4)C3)nc3ccccc32)cc1` (centres unmarked) [compound 168, 1-[(4-fluorophenyl)methyl]-N[1-[2-(2-thiazolylamino)ethyl]-3-pyrrolidinyl]-1H-benzimidazol-2-amine] was 0.08 mg/kg; that for `c1csc(Cn2c(NC3CCN(CCNc4nc5cnccc5[nH]4)C3)nc3ccccc32)c1` (centres unmarked) [compound 186] was 0.01 mg/kg.

As to `Cc1ccc(Cn2c(NC3CCN(CCNc4nc5cnccc5[nH]4)C3)nc3cccnc32)o1` (centres unmarked) [compound 187, N-[1-[2-[(1H-imidazo[4,5-c]pyridin-2-yl)amino]ethyl]-3-pyrrolidinyl]-3-[(5-methyl-2-furanyl)methyl]-3H-imidazo[4,5-b]pyridin-2-amine], the ED50 was determined as 0.04 mg/kg. Take `CNC(=O)NCCN1CCC(Nc2nc3ccccc3n2Cc2ccc(F)cc2)C1` (centres unmarked) [compound 188, N-[2-[3-[[1-[(4-fluorophenyl)methyl]-1H-benzimidazol-2-yl]amino]-1-pyrrolidinyl]ethyl]-N′-methylurea]: the ED50 came to 0.01 mg/kg.

On to `CN1CCCC(Nc2nc3cccnc3n2Cc2ccco2)CC1` (centres unmarked) [compound 196, 3-(2-furanylmethyl)-N-(hexahydro-1-methyl-1H-azepin-4-yl)-3H-imidazo[4,5-b]-pyridin-2-amine], for which the ED50 was determined as 0.02 mg/kg. For the molecule `Cc1ccc(Cn2c(NC3CCCN(C)CC3)nc3ccccc32)o1` (centres unmarked) [compound 198, N-(hexahydro-1-methyl-1H-azepin-4-yl)-1-[(5-methyl-2-furanyl)methyl]-1H-benzimidazol-2-amine], the ED50 was determined as 0.04 mg/kg. Consider `CC(C)N1CCC(Nc2nc3ccccc3n2Cc2ccc(F)cc2)C1` (centres unmarked) [compound 204, 1-[(4-fluorophenyl)methyl]-N-[1-(1-methylethyl)-3-pyrrolidinyl]-1H-benzimidazol-2-amine], for which the ED50 is 0.04 mg/kg. Take `Cc1ccc(Cn2c(NC3CCCN(C)CC3)nc3cccnc32)o1` (centres unmarked) [compound 207, N-(hexahydro-1-methyl-1H-azepin-4-yl)-3-[(5-methyl-2-furanyl)methyl]-3H-imidazo[4,5-b]pyridin-2-amine]: the ED50 came to 0.01 mg/kg. With `Cc1ccc(Cn2c(NC3CCCN(CCO)CC3)nc3ccccc32)o1` (centres unmarked) [compound 211, hexahydro-4-[[1-[(5-methyl-2-furanyl)methyl]-1H-benzimidazol-2-yl]amino]-1H-azepine-1-ethanol], the ED50 was 0.04 mg/kg.

The values are drawn from patent EP0297661B1, “[(Bicyclic heterocyclyl)methyl and -hetero] substituted hexahydro-1H-azepines and pyrrolidines” (JANSSEN PHARMACEUTICA N.V., priority 1987, dated 1989).
